The results in this text go back to US9359405B2, “Antagonists of the interleukin-1 receptor” (Phlogo ApS, priority 2011, dated 2016).

Series [1] in a line: Peptide solubility on reconstitution. The class given is physicochemical. From the text: Upon receiving the peptides from the synthesizing company (as powder), they were reconstituted in water, in PBS or in medium. Thus it is immediately apparent whether a peptide is soluble or not.
Series [2] has as its system NF-κB activated by IL1β (IL1RI signaling), HEK-Blue IL1β cells. In words: IL1RI signaling assay, HEK-Blue IL1β reporter cells (NF-κB/SEAP). The class given is cell-based. Conditions: IL1β 1.2 μM. The text has this: (§1) IL1RI signaling assay: Commercially available Blue™ Cytokine Reporter Cell technology from InvivoGen (Denmark distributor: Sigma-Aldrich Denmark) was used. It is represented by an expanding family of engineered cell lines designed to provide a simple, rapid, and reliable method of monitoring the activation of signaling pathways induced by key cytokines. HEK-Blue™ IL1β cells are specifically engineered to selectively respond to IL1β, and they feature the secreted embryonic alkaline phosphatase (SEAP) reporter gene under the control of an NF-κB-inducible promoter. […] A target/receptor-specificity of the Ilantafin effect was verified employing HEK-Blue™ IL6 cells.

In series [3] the test system is IL1β-activated AMJ2-C8 macrophage cells. The series can be described thus: TNFα secretion by IL1β-activated macrophages (L929/MTS bioassay). The class given is cell-based. Conditions: IL1β 1.2 μM. The protocol:
The Ilantafin peptide or IL1Ra or IL1RI was added to cultures of macrophages (AMJ2-C8) seeded in 6-well multi-dishes (Nunc) (2.5×10^5 cells/well). After 24 h of incubation at 37° C., IL1β (1.2 μM) was added to the cultures to activate the macrophages. L929 cells were seeded in a 96-well plate at a density of 2×10^5 cells/mL. Both cell cultures were incubated for 24 h at 37° C. Conditioned medium from the macrophage cultures was collected and added to the fibroblast cultures together with 0.6 μg/well actinomycin. D (Sigma-Aldrich). Finally, after 24 h of incubation at 37° C., 20 μl of 3-(4,5-dimethylthiazol-2-yl)-5-(3-carboxymethoxyphenyl)-2-(4-sulfophenyl)-2H-tetrazolium (MTS) (Promega, Madison, Wis., USA) was added to each well and the plates were incubated protected from light, at 37° C., for ˜45 min and the optical density was measured at 490 nm in a Sunrise absorbance reader (Tecan, Männedorf, Switzerland). In order to calculate the amount of TNF-α in the conditioned medium, a standard curve was obtained by treating fibroblasts with different concentrations of TNF-α (R&D systems, Minneapolis, Minn., USA).

For series [4], the system named is cerebellar granule neurons. In words: Neurite outgrowth in primary cerebellar granule neurons. The class given is cell-based, rat. Conditions: for neurite outgrowth: 24 h, primary cerebellar neurons. The protocol: Cerebellar granular neurons (CGN) were prepared from 3 or 7 postnatal (P) day Wistar rats (Charles River, Sulzfeld, Germany or Taconic, Ejby, Denmark). Cerebella were cleared of meninges and blood vessels, roughly homogenized by chopping, and trypsinized with trypsin from Sigma-Aldrich (Brøndby, Denmark). The neurons were washed in the presence of DNAse 1 and soybean trypsin inhibitor (Sigma-Aldrich), and cellular debris was pelleted by centrifugation before plating. CGNs were plated at a density of 10,000 cells/well onto uncoated eight-well Lab-Tek chamber slides (NUNC, Slangerup, Denmark) in Neurobasal-A medium supplemented with 0.4% (w/v) BSA. Peptides or proteins at various concentrations were added to the medium immediately after plating, and cells were maintained at 37° C. and 5% CO2 for 24 h. Cultures then were fixed, blocked and incubated with polyclonal rabbit antibody against rat GAP-43 (Chemicon, Temecula, Calif., USA) followed by incubation with secondary Alexa Fluor488 goat anti-rabbit antibody (Molecular Probes, Eugene, Oreg., USA) as previously described (Neiiendam et al., 2004). The immunostained cultures were all recorded by computer-assisted fluorescence microscopy using a Nikon Diaphot inverted microscope (Nikon, Japan) equipped with a Nikon Plane 20× objective. Images were captured with a charge-coupled device video camera (Grundig Electronics, Nurnberg, Germany) using the software package Prima developed at the Protein Laboratory (University of Copenhagen, Copenhagen, Denmark). The length of neuronal processes per cell was estimated using the software package Process Length developed at the Protein Laboratory (Ronn et al. 2000). For estimation of neurite outgrowth, at least 200±20 cells were processed for each group in each individual experiment.

Series [5] addresses T1, IL1RI (Homo sapiens, UniProt P14778).
T1 construct: The recombinant protein comprising the whole extracellular part of IIL1RI was immobilised on the surface of a CM5 sensor chip
The series can be described thus: ka (M^-1s^-1). From the text: (§2) Table printed on a drawing sheet, Figure 3
Head of the field: ka (M^-1s^-1)
(§3) First copying reader's note: Rate and affinity constants for binding to IL1RI; each cell holds the value with its ± error, and Ilantafin is a peptide while ILRa and IL1β are proteins.

The target in series [6] is T1, IL1RI. The series can be described thus: Kb (s^-1).
Text: as §2
Head of the field: Kb (s^-1)
as §3

Series [7] concerns collagen-induced arthritis (CIA). The series can be described thus: Collagen-induced arthritis in rats, treatment from day 15 (Example 7). The class given is in vivo, rat. As to conditions: 3.3 and 10 mg/kg s.c. daily from day 15. The text has this: Rheumatoid arthritis is a chronic, inflammatory, systemic autoimmune disease that affects about 1% of the general population in Western countries. Collagen-induced arthritis (CIA) in rats is a widely employed animal model for the screening of anti-inflammatory compounds. Collagen bovine, type II (CII, Cat.no.20021, Lot 090209, Chondrex, USA), Complete Freund's Adjuvant, containing 0.1% of Mycobacterium tuberculosis (CFA, Cat.no. F5581, Lot 049K8700, Sigma-Aldrich), Incomplete Freund's Adjuvant (IFA, Cat.no. F5506, Lot 058K8702, Sigma). PBS (Panum Institute, Copenhagen University). Isofluran (Baxter). Animals were immunized twice: on day 0 (CII+CFA) and on day 10 (CII+IFA, booster). On day 15 the mean clinical score reached a value of 5.0 and all animals were divided into 3 groups so that the severity of disease (mean clinical score) in all groups was almost equal. The peptide (two doses, 3.3 and 10 mg/kg) was administered subcutaneously daily starting at day 15. The clinical evaluation of the arthritis severity was assessed using the following grading system: O— no redness or swelling in foot and palm; 1—slight swelling or redness in metatarsophalangeal joint and ankle joint foot or palm; 2—progressed swelling/inflammation and redness from ankle to mid foot or in entire palm; 3—swelling/inflammation of entire foot except toes; 4—swelling and inflammation of entire foot including toes.

Series [8] has as its system cerebellar granule neurons. In words: Survival assay, cerebellar granule neurons, low-potassium apoptosis. The class given is cell-based, rat. Conditions: 5 mM KCl, 2 days. The protocol:
Survival assay: Primary cultures of CGN were plated at a density of 100,000 cells/cm2 on poly-L-lysine coated 8-well permanox slides in Neurobasal-A medium (Gibco BRL) supplemented with 2% (v/v) B27, 0.5% (v/v) glutamax, 100 units/mL penicillin, 100 µg/mL streptomycin and KCl, making the final concentration of KCl in the medium 40 mM. 24 hours after plating, cytosine-b-D-arabinofuranoside (Ara-C; Sigma-Aldrich) was added to a final concentration of 10 μM to avoid proliferation of glial cells, after which the neurons were allowed to differentiate for a further 6 days at 37° C. Apoptotic cell death was induced by washing twice and changing the medium to Basal Medium Eagle (BME; Gibco BRL) supplemented with 1% (v/v) glutamine, 100 U/mL penicillin and 100 µg/mL streptomycin, 3.5 g D-glucose/L and 1% (v/v) sodium pyruvate (Gibco BRL) together with various concentrations of peptide. Thereby the concentration of potassium in the cultures was reduced to 5 mM KCl (Ditlevsen et al., 2003). Two days after induction of apoptosis, the cells were fixed with 4% (v/v) formaldehyde and stained with Hoechst 33258 as described for the survival assay employing hippocampal neurons.

Series [9] deals with STAT signalling induced by IL6, HEK-Blue IL6 cells. In words: Target specificity, HEK-Blue IL6 cells. The class given is cell-based.
Text: as §1

No end group written: not given here.

Turning to AGYLQGPNVN-OH [Ilantafin-2], in [1], the “solubility in PBS or medium” value is “not soluble in PBS or medium” and the solubility in water result was “soluble in water”.

For the molecule “AQMKSSKRGS (listed as Homo sapiens) [Ilantafin rev-d, reference compound]”, the “inhibition of NF-κB activation induced by IL1β” value in [2] is “neither two peptides with scrambled sequences, Ilantafin scr-d1 (KQSAGKRSMS) (SEQ ID NO:39), Ilantafin scr-d2 (KASQKGMSRS) (SEQ ID NO:40), nor a peptide with the reverseequence, Ilantafin rev-d (AQMKSSKRGS) (SEQ ID NO:41) inhibit the activation of NF-KB induced by IL1β”.

“EGVMVTKFYFQED-OH [Ilantafin-5, EGVMVTKFYFQED]”: the solubility result in series [1] is on record as “completely insoluble when produced”.

As to “IL1Ra: IL-1 receptor antagonist protein; commercial IL1Ra used as positive control”, in series [3], the “inhibition of TNFα secretion by IL1β-activated macrophages” value (“inhibition of TNFα secretion” below) was “also inhibit macrophage activation”. The neurite outgrowth result in series [4] is “induce neurite outgrowth in primary cerebellar neurons in a dose-dependent manner”. In addition, the “inhibition of NF-κB activation induced by IL1β” value in [2] is “inhibitory effect”.

Consider “IL1β: Interleukin-1 beta, pro-inflammatory cytokine, agonist of the IL1 receptor [listing 1 of 2 here]”, for which the “ka (M^-1s^-1)” value in series [5] is reported as 1.84 ± 0.20 x 10^5 M^-1s^-1. In addition, the “Kb (s^-1)” value in series [6] is on record as 2.69 ± 0.58 x 10^-3 s^-1.

Turning to “IL1β: Interleukin-1 beta, pro-inflammatory cytokine, agonist of the IL1 receptor [listing 2 of 2 here]”, the neurite outgrowth result in series [4] is “does not affect neuritogenesis”. Moreover, the “effect on Ilantafin- and IL1Ra-induced neurite outgrowth” value in series [4] (co-treatment) was “inhibits Ilantafin- and IL1Ra induced neurite outgrowth”.

For “KASQKGMSRS (listed as Homo sapiens) [Ilantafin scr-d2, reference compound]”, the “inhibition of NF-κB activation induced by IL1β” value in [2] is “neither two peptides with scrambled sequences, Ilantafin scr-d1 (KQSAGKRSMS) (SEQ ID NO:39), Ilantafin scr-d2 (KASQKGMSRS) (SEQ ID NO:40), nor a peptide with the reverseequence, Ilantafin rev-d (AQMKSSKRGS) (SEQ ID NO:41) inhibit the activation of NF-KB induced by IL1β”.

Take “KQSAGKRSMS (listed as Homo sapiens) [Ilantafin scr-d1, reference compound]”: in series [2], the “inhibition of NF-κB activation induced by IL1β” value was “neither two peptides with scrambled sequences, Ilantafin scr-d1 (KQSAGKRSMS) (SEQ ID NO:39), Ilantafin scr-d2 (KASQKGMSRS) (SEQ ID NO:40), nor a peptide with the reverseequence, Ilantafin rev-d (AQMKSSKRGS) (SEQ ID NO:41) inhibit the activation of NF-KB induced by IL1β”.

For NQKTFYLRNNQL-OH [Ilantafin-6], in [1], the “solubility in PBS or medium” value is “not soluble in PBS or medium” and the solubility in water result was “soluble in water”.

As to NQLVAGYLQGPNVN-OH [Ilantafin-3], the solubility in water entry in [1] is “not soluble in water”.

On to “SGRKSSKMQA (also: tetrameric dendrimer; listed as Homo sapiens) [Ilantafin-d]”, for which the “inhibition of TNFα secretion” value in series [3] is recorded as “inhibitory effect”. The “clinical manifestations (clinical score) of CIA” value in [7] is given as “abrogated an increase in clinical manifestations of the disease”. Also, the “neuronal survival / cell death (apoptosis) induced by lowering potassium” value in series [8] was “promotes survival of cerebellar granule neurons”. The “inhibition of NF-κB activation induced by IL1β” value in series [2] is recorded as “inhibitory effect”. Besides, in series [9], the “effect on STAT signalling induced by IL6” value is on record as “does not affect the activation of STAT signalling induced by IL6”.

As for SGRKSSKMQA-OH [Ilantafin-m], the “inhibition of TNFα secretion” value in [3] is “inhibitory effect”. For the same molecule, in series [8], the “neuronal survival / cell death (apoptosis) induced by lowering potassium” value is given as “promotes survival of cerebellar granule neurons”. Further, in series [2], the “inhibition of NF-κB activation induced by IL1β” value was “inhibitory effect”.

In the case of VTKFYFQED-OH [Ilantafin-4, VTKFYFQED], the solubility in water result in series [1] is listed as “not soluble in water”.

B1: SIL1RI: soluble IL1 receptor type 1 protein, positive control (protein)
chain: LEADKCKEREEKIILVSSANEIDVRPCPLNPNEHKGTITWYKDDSKTPVSTEQASRIHQHKEKLWFVPAKVEDSGHYYCVVRNSSYCLRIKISAKFVENEPNLCYNAQAIFKQKLPVAGDGGLVCPYMEFFKNENNELPKLQWYKDCKPLLLDNIHFSGVKDRLIVMNVAEKHRGNYTCHASYTYLGKQYPITRVIEFITLEENKPTRPVIVSPANETMEVDLGSQIQLICNVTGQLSDIAYWKWNGSVIDEDDPVLGEDYYSVENPANKRRSTLITVLNISEIESRFYKHPFTCFAKNTHGIDAAYIQLIYPVTNFQK
For B1, the “inhibition of TNFα secretion” value in [3] is given as “also inhibit macrophage activation”. Moreover, in series [4], the neurite outgrowth entry is “induce neurite outgrowth in primary cerebellar neurons in a dose-dependent manner”. Also, in series [2], the “inhibition of NF-κB activation induced by IL1β” value is given as “inhibitory effect”.
